Converted amounts (≈) assume the structure as drawn. Structures can show the parent of a compound that is named as a salt.
Legend:
Assay type in all cases: cell-based
[1] = test system: Escherichia coli NIHJ JC-2; experiment: MIC, antibacterial spectrum (aerobic bacteria); details: NIHJJC2, Escherichia coli NIHJ JC-2, Gram -, 10^6 cells/ml
[2] = test system: Peptostreptococcus anaerobius KYA 27337; experiment: MIC, antibacterial spectrum (anaerobic bacteria); details: KYA27337; Peptostreptococcus anaerobius KYA 27337, Gram +, 10^6 cells/ml, anaerobic; read-out: MIC
B. distasonis 8503 = experiment: MIC, antibacterial spectrum (anaerobic bacteria); details: Parabacteroides distasonis; B. distasonis 8503, Gram -, 10^6 cells/ml, anaerobic; read-out: MIC
[3] = test system: Morganella morganii IID 602; experiment: MIC, antibacterial spectrum (aerobic bacteria); details: IID602, Morganella morganii IID 602, Gram -, 10^6 cells/ml
[4] = test system: B. thetaiotaomicron (0661); experiment: MIC, antibacterial spectrum (anaerobic bacteria); details: Bacteroides thetaiotaomicron; B. thetaiotaomicron (0661), Gram -, 10^6 cells/ml, anaerobic; read-out: MIC
P. cepacia GIFU 518 = experiment: MIC, antibacterial spectrum (aerobic bacteria); details: Burkholderia cepacia, GIFU518; P. cepacia GIFU 518, Gram -, 10^6 cells/ml, aerobic; read-out: MIC
[5] = test system: Veillonella parvula KYA 10790; experiment: MIC, antibacterial spectrum (anaerobic bacteria); details: KYA10790, Veillonella parvula KYA 10790, Gram -, 10^6 cells/ml
P. maltophilia GIFU 2491 = experiment: MIC, antibacterial spectrum (aerobic bacteria); details: Stenotrophomonas maltophilia, GIFU2491; P. maltophilia GIFU 2491, Gram -, 10^6 cells/ml, aerobic; read-out: MIC
F. varium KYA 8501 = experiment: MIC, antibacterial spectrum (anaerobic bacteria); details: Fusobacterium varium, KYA8501, F. varium KYA 8501, Gram -, 10^6 cells/ml
Shigella sonnei IID 969 = experiment: MIC, antibacterial spectrum (aerobic bacteria); details: IID969, Shigella sonnei IID 969, Gram -, 10^6 cells/ml
Protocol: Minimal inhibitory concentrations (MICs) were determined in accordance with the method recommended by Japan Society of Chemotherapy.

[6] = test system: Staphylococcus aureus 209 P; experiment: MIC, antibacterial spectrum (aerobic bacteria); details: Staphylococcus aureus 209 P, Gram +, 10^6 cells/ml, aerobic; read-out: MIC
[7] = test system: Streptococcus pneumoniae IID 552; experiment: MIC, antibacterial spectrum (aerobic bacteria); details: IID552; Streptococcus pneumoniae IID 552, Gram +, 10^6 cells/ml, aerobic; read-out: MIC
S. aureus Smith = experiment: MIC, antibacterial spectrum (aerobic bacteria); details: Staphylococcus aureus; S. aureus Smith, Gram +, 10^6 cells/ml, aerobic; read-out: MIC
[8] = test system: Alcaligenes faecalis 0114002; experiment: MIC, antibacterial spectrum (aerobic bacteria); details: Alcaligenes faecalis 0114002, Gram -, 10^6 cells/ml
P. aeruginosa IFO 12689 = experiment: MIC, antibacterial spectrum (aerobic bacteria); details: Pseudomonas aeruginosa, IFO12689; P. aeruginosa IFO 12689, Gram -, 10^6 cells/ml, aerobic; read-out: MIC
E. coli ATCC 10536 = experiment: MIC, antibacterial spectrum (aerobic bacteria); details: Escherichia coli, ATCC10536; E. coli ATCC 10536, Gram -, 10^6 cells/ml, aerobic; read-out: MIC
[9] = test system: Klebsiella pneumoniae KY(GN)6445; experiment: MIC, antibacterial spectrum (aerobic bacteria); details: Klebsiella pneumoniae KY(GN)6445, Gram -, 10^6 cells/ml, aerobic; read-out: MIC
[10] = test system: Peptococcus magnus KY 017; experiment: MIC, antibacterial spectrum (anaerobic bacteria); details: Finegoldia magna, KY017; Peptococcus magnus KY 017, Gram +, 10^6 cells/ml, anaerobic; read-out: MIC
P. cepacia KY 84 = experiment: MIC, antibacterial spectrum (aerobic bacteria); details: Burkholderia cepacia, KY84, P. cepacia KY 84, Gram -, 10^6 cells/ml

SMILES	MIC [1]	MIC [2]	MIC (B. distasonis 8503)	MIC [3]	MIC [4]	MIC (P. cepacia GIFU 518)	MIC [5]	MIC (P. maltophilia GIFU 2491)	MIC (F. varium KYA 8501)	MIC (Shigella sonnei IID 969)	MIC [6]	MIC [7]	MIC (S. aureus Smith)	MIC [8]	MIC (P. aeruginosa IFO 12689)	MIC (E. coli ATCC 10536)	MIC [9]	MIC [10]	MIC (P. cepacia KY 84)
O=C(O)c1cn(C2CC2)c2c(Cl)c(N3CCC(CNCCO)C3)c(F)cc2c1=O (stereo not shown) [Exp. 3, 8-Chloro-1-cyclopropyl-6-fluoro-1,4-dihydro-7-(3-(2-hydroxyethylaminomethyl)-1-pyrrolidinyl]-4-oxo-3-quinolinecarboxylic acid]	0.0125 µg/mL (≈ 0.0295 µM)	0.025 µg/mL (≈ 0.059 µM)	0.78 µg/mL (≈ 1.84 µM)	0.39 µg/mL (≈ 0.92 µM)	1.56 µg/mL (≈ 3.68 µM)	1.56 µg/mL (≈ 3.68 µM)	0.1 µg/mL (≈ 0.236 µM)	0.2 µg/mL (≈ 0.472 µM)	0.39 µg/mL (≈ 0.92 µM)	0.05 µg/mL (≈ 0.118 µM)	0.0125 µg/mL (≈ 0.0295 µM)	0.0125 µg/mL (≈ 0.0295 µM)	0.0125 µg/mL (≈ 0.0295 µM)	0.39 µg/mL (≈ 0.92 µM)	1.56 µg/mL (≈ 3.68 µM)	0.025 µg/mL (≈ 0.059 µM)	0.05 µg/mL (≈ 0.118 µM)	0.05 µg/mL (≈ 0.118 µM)	
O=C(O)c1cn(C2CC2)c2cc(N3CCC(CNCCO)C3)c(F)cc2c1=O (stereo not drawn) [Exp. 2, l-Cyclopropyl-6-fluoro-l,4-dihydro-7-[3-(2-hydroxyethylaminomethyl)-l-pyrrolidinyl]-4-oxo-3-quinolinecarboxylic acid hydrochloride]	0.1 µg/mL	0.78 µg/mL		3.13 µg/mL	> 100 µg/mL		3.13 µg/mL		25 µg/mL	0.1 µg/mL	0.2 µg/mL	0.1 µg/mL	0.39 µg/mL	6.25 µg/mL	6.25 µg/mL	0.1 µg/mL	0.39 µg/mL	0.2 µg/mL	
O=C(O)c1cn(C2CC2)c2c(F)c(N3CCC(CNCCO)C3)c(F)cc2c1=O (stereo not shown) [Exp. 1, 1-Cyclopropyl-6,8-difluoro-1,4-dihydro-7-[3-(2-hydroxyethylaminomethyl)-1-pyrrolidinyl]-4-oxo-3-quinolinecarboxylic acid]	0.025 µg/mL (≈ 0.0614 µM)	≤ 0.05 µg/mL		0.39 µg/mL (≈ 0.957 µM)	3.13 µg/mL (≈ 7.68 µM)		0.39 µg/mL (≈ 0.957 µM)		0.78 µg/mL (≈ 1.91 µM)	0.05 µg/mL (≈ 0.123 µM)	0.05 µg/mL (≈ 0.123 µM)	0.05 µg/mL (≈ 0.123 µM)	0.05 µg/mL (≈ 0.123 µM)	0.78 µg/mL (≈ 1.91 µM)	1.56 µg/mL (≈ 3.83 µM)	0.05 µg/mL (≈ 0.123 µM)	0.05 µg/mL (≈ 0.123 µM)	≤ 0.05 µg/mL	3.13 µg/mL (≈ 7.68 µM)
